Laboratory results: patent publication US11634458B2, “Peptides and compositions for use in cosmetics and medicine” (LIPOTRUE, S.L., priority 2018, dated 2023)
“Also recorded” adds a separate entry of the source.

Experiments:
[1] = test system: human skeletal muscle myocytes; assay: Gene expression modulation in skeletal muscle human myocytes (RTqPCR contractility gene panel); type: cell-based; settings: 24 hours, vs basal control
Method: Said peptides were tested to evaluate their capacity to modulate the expression of several genes related with muscle contraction and relaxation in human skeletal muscle myocytes (Lodish H, Berk A, Zipursky S L, et al. (2000), Molecular Cell Biology, 4th edition; Section 18.3 Myosin: The Actin Motor Protein, Nueva York, W. H. Freeman; Kuo, I Y, & Ehrlich, B E (2015), Signaling in Muscle Contraction, Cold Spring Harbor Perspectives in Biology, 7(2); RAPSN receptor associated protein of the synapse [Homo sapiens (human)], Gene ID in NCBI 5913; Blake D J, Tinsley J M, Davies K E (1996), Utrophin: a structural and functional comparison to dystrophin, Brain Pathol., 6(1):37-47; Barik A, Lu Y, Sathyamurthy A, et.al. (2014), LRP4Is Critical for Neuromuscular Junction Maintenance, The Journal of Neuroscience, 34(42), 13892-13905; Kim N, Stiegler A L, Cameron T O, Hallock P T, et.al. (2008), Lrp4 is a Receptor for Agrin and Forms a Complex with MuSK, Cell, 135(2), 334-342; Mahavadi S, Nalli A, Kumar D, et.al. (2014), Increased expression of caveolin-1 is associated with upregulation of the RhoA/Rho kinase pathway and smooth muscle contraction in diabetes (1110.11), The FASEB Journal, 28:1_supplement)). To that end, a contractility smart data gene panel was designed. Said contractility smart data gene panel analyses the expression of the genes related with muscular contraction and relaxation included in table 5.
Briefly, human skeletal muscle myoblasts were seeded in duplicate in 12-well culture plates at a density of 1×10^5 cells/well and maintained at standard culture conditions (37° C., 95% humidity, 5% CO2) for 48-72h. Myoblast differentiation to myocyte was then induced with specific differentiation media (SKM-D medium+1% Antibiotic-Antimycotic) and monitored for 7 more days. Differentiated cells were treated with 0.05 mg/mL of peptide Ac-SEQ ID NO: 5-NH2; or with 0.1 mg/mL of peptide Ac-SEQ ID NO: 10-NH2 for 24 hours; or with 0.05 and 0.5 mg/mL of peptide Ac-SEQ ID NO: 8-NH2 for 6h; or with 0.5 mg/mL of peptide Ac-SEQ ID NO: 8-NH2 for 24 h. Untreated cells were used as basal control. Cells were then lysed for RNA extraction with a RNA purification commercial kit following manufacturer instructions (RNeasy mini kit, Qiagen, Netherlands). RNA was then quantified by nanodrop, adjusted in concentration and processed for retrotranscription to cDNA using a commercially available kit (High-Capacity cDNA Reverse Transcription kit, Thermofisher Scientific, USA). Resulting cDNA was used to perform a RTqPCR (Real Time Quantitative Polymerase Chain Reaction) using taqman technology and a panel of probes designed to target the specific genes related to muscle contractility mentioned in table 4.

LAN cells = assay: Measurement of acetylcholine release in differentiated LAN cells stimulated with 50 mM KCl; type: cell-based; settings: 1 hour treatment, 0.001, 0.005 and 0.01 mg/mL (Ac-SEQ ID NO: 8-NH2: 0.005 and 0.05 mg/mL)
Method: Said peptides were tested for their ability to modulate acetylcholine release in vitro. To that end, LAN cells were seeded on 48-well culture plates and allowed to reach the appropriate confluence under controlled conditions (37° C., 5% CO2) before inducing differentiation by replacing the culture media with Neurobasal® A media, supplemented with N-2 Supplement, GlutaMAX™, choline chloride and Leukemia Inhibition factor (GIBCO, Life technologies, MA, USA). Once the cells acquired its differentiated morphology, they were treated with the peptides mentioned above at the following concentrations for 1 hour: all peptides, except Ac-SEQ ID NO: 8-NH2, at 0.001 mg/mL, 0.005 mg/mL and 0.01 mg/mL; and peptide Ac-SEQ ID NO: 8-NH2 at 0.005 mg/mL and 0.05 mg/mL. Cells were then washed with HEPES, before stimulation of acetylcholine release by depolarization with external 50 mM KCl solution. Non-stimulated cells were incubated with non-depolarizing 4 mM KCl solution. After 30 minutes of incubation with the corresponding depolarizing or non-depolarizing KCl solution, cell supernatants were collected and used to measure acetylcholine levels with Amplex Red Acetylcholine Assay Kit (ThermoFisher Scientific, MA, USA). Cell pellets were used to determine protein content by BCA Protein Test Assay (Pierce BCA Protein Assay kit, ThermoFisher Scientific, MA, USA) (for data normalization purposes).
Percentage of acetylcholine release inhibition was calculated considering 100% release for the positive control (non-treated stimulated with KCl cells).

Munc18/Syntaxin-1 = Munc18/Syntaxin-1 (Homo sapiens, UniProt Q16623); assay: ELISA-based in vitro Munc18/Syntaxin-1 binding assay; settings: peptide 0.1, 0.5 and 1 mM; Munc18 100 nM, Syntaxin-1 10 and 5 nM; control = 100% binding
Chain of Munc18/Syntaxin-1 (Q16623 whole entry): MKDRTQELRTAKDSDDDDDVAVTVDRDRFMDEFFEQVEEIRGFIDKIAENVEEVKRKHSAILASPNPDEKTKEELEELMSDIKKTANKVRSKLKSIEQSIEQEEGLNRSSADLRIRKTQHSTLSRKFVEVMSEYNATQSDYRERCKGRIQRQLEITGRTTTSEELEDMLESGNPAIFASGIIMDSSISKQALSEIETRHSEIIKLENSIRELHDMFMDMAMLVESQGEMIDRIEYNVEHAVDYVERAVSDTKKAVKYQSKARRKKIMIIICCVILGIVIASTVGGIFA
Method: The capacity of the peptides to inhibit Munc18 protein-protein interaction with Syntaxin-1, a SNARE complex protein, was functionally evaluated by means of an ELISA-based in vitro Munc18/Syntaxin-1 binding assay. Briefly, the above-mentioned peptides at 0.1, 0.5 and 1 mM were preincubated with their target protein Syntaxin-1 (GST-tagged) at 10 and 5 nM in buffer (20 mM Hepes, 150 mM NaCl, 2 mM MgC2, 2 mM DTT, 0.5% Triton-X100 and 0.5% non-fat milk) for 3 hours at RT. Meanwhile, His-tagged Munc18 was bound to a Nickel-coated 96-well plate at 100 nM and incubated at RT for 1.5 hours. Non-bound protein was subsequently washed away before blocking wells with non-fat milk in wash buffer (PBS+0.02% Triton-X100) for additional 30 minutes. GST-tagged Syntaxin-1 preincubated with the peptides was then added at 10 and 5 nM to the plate and incubated for 2 h at RT. Wells were washed three times with wash buffer before incubation with the primary antibody (GST tag polyclonal antibody—Thermofisher Scientific, Massachusetts, USA) for 45 minutes. Finally, after washing again, HRP-conjugated secondary antibody (Anti-Rabbit-IgG-HRP—Sigma, Missouri, USA) was added and incubated at RT. TMB substrate (3,3′,5,5′-Tetramethylbenzidine) was used to develop signal. […] Amount of binding of Syntaxin-1 protein to Munc18 protein was analysed by measuring absorbance at 450 nm.

SH-SY5Y cells = assay: Exocytosis levels and delay (fluorescent exocytosis reporter); type: cell-based, human; settings: 1 mg/mL, 1 hour, PMA + ionomycin, vs non-treated cells
Method: The potential of said peptide Ac-SEQ ID NO: 8-NH2 to modulate the exocytosis of vesicles containing neurotransmitters from a neuroblastoma cell line was evaluated in vitro using SH-SY5Y cells, by fluorescence imaging using a Zeiss axiovert 200 inverted epifluorescence microscope with a 20× objective and a Xenon lamp.
SH-SY5Y cells (Sigma, USA) were cultured in T25 flasks in supplemented medium (DMEM/F12, Gibco, USA). Above 90% confluence, cells were trypsinized with 1 ml of 0.5% (v/v) Trypsin-EDTA. Next, 5 mL of said supplemented medium was added and cell concentration determined. Cells were seeded onto polyLysine-coated 12 mm-treated coverslips in 24 well-plates at 15×10^4 cells/well in supplemented medium (Gibco, USA) and incubated at regular conditions (37° C., 5% CO2). After 24 h cell seeding, cells were transfected with exocytosis reporter using Lipofectamine™ 3000 (Invitrogen, USA) following manufacturer's instructions. Reporter construct contained fusion protein made up of intraluminal-specific proteins and a pH-sensitive fluorescent protein.
For exocytosis monitorization, after 48 h of protein expression, cells were incubated with 0.01 mg/mL of Ac-SEQ ID NO: 8-NH2 peptide or 1 mg/mL of the benchmark acetyl hexapeptide-8 for 1 h at 37° C. and 5% CO2. Non-treated cells were used as basal control. […] Fluorescence imaging was done for the last 10 min of the stimulation protocol. Fluorescence signal of exocytosis reporter was monitored employing 483-512 nm excitation-filter and 525-530 nm emission-filter. […]
Non-treated cells were assayed in N=4 independent experiments with n=16 coverslips (483 cells measured), acetyl hexapeptide-8-treated cells in N=3 independent experiments with n=10 coverslips (328 cells measured) and Ac-SEQ ID NO: 8-NH2-treated cells in N=3 independent experiments with n=8 coverslips (240 cells measured). Cells were selected to individually monitor fluorescence intensity and time-course. Fluorescence peak evoked by ionomycin addition was used to quantify exocytosis by calculating the Area under the curve (AUC) using GraphPad software. Two parameters were defined and analyzed: • Exocytosis levels: For individual cells, total peak area was obtained from AUC analysis and was normalized by the baseline that was defined as fluorescence intensity 3-cycles before lonomycin injection. • Exocytosis delay: For individual cells, response time (min) was obtained from AUC analysis as time frame between lonomycin injection (Y) and initiation of peak (firstX).
Fluorescence values were further normalized as percentage change to non-treated cells on each experiment as: (exocytosis level of treated cells/exocytosis levels non-treated cells)×100 and (response time of treated cells/response time of non-treated cells)×100. […]

[2] = test system: human muscle cells and motor neurons derived from hiPSC co-cultures; assay: Contraction frequency in human muscle cell / hiPSC motor neuron co-cultures; type: cell-based; settings: 0.5 mg/mL
Method: The potential of said peptide Ac-SEQ ID NO: 8-NH2 to modulate the contraction frequency was evaluated in vitro using human muscle cells and motor neurons derived from hiPSC co-cultures, by means of live-imaging video of localized contractile muscle fibers recorded with an InCell 2200 automated microscope during 60 seconds, before and after treatment (after treatment, at each of the established timepoints).
Human muscle cells were cultivated at a density of 1×10^6 cells in T75 cm^2 flasks and then transferred to 96 well plates for differentiation. Motor neurons derived from hiPSC were transferred onto the 96 well plates containing the muscle cells in a differentiation medium. Co-cultures were maintained for 10 days in order to generate neurons junctions with muscle fibers. Spontaneous contractions were observed within 5 days.
Co-cultures were then treated with control medium (basal), 1 μM α-bungarotoxin, 0.5 mg/mL of acetyl hexapeptide-8 as a benchmark reference and 0.05 or 0.1 mg/mL of peptide Ac-SEQ ID NO: 8-NH2. Movies of co-cultures were recorded during 60 seconds before treatment and, after 30 minutes of incubation, movies were recorded again during 60 seconds. The culture plate was incubated again for 1 h 30 min with compounds (2 h of total incubation), and movies of co-cultures were recorded again during 60 seconds. The culture plate was incubated again for a total of 24 h with compounds and at the end of the incubation movies were recorded again during 60 seconds. Finally, compounds were washed out and a last recording after 24 h from said washed out of the compounds was done to assess an eventual recovery of muscle contractions (recovery).
Frequencies of contraction were calculated before and after each incubation. For each culture condition, 6 wells were analyzed.

[3] = test system: permeabilized chromaffin cells; settings: Blanes-Mira et al. 2002; cited from earlier work

In the case of “Ac-Arg-Arg-Arg-Phe-NH2 (Ac-RRRF-NH2) [Ac-SEQ ID NO: 10-NH2]”, the CACNB1 gene expression ([1]; 0.1 mg/mL) is reported as “downregulation”, the CHRNA1 gene expression ([1]; 0.1 mg/mL) is reported as “downregulation” and the SCN3A gene expression ([1]; 0.1 mg/mL) is reported as “downregulation”. The TNNC1 gene expression ([1]; 0.1 mg/mL) was “downregulation”, the UTRN gene expression ([1]; 0.1 mg/mL) was “downregulation” and the “Result: modulation of acetylcholine release” value (shortened to “Result: modulation”) (LAN cells) was “Active in the modulation of”.
For “Ac-Arg-Met-Arg-Phe-NH2 (Ac-RMRF-NH2) [Ac-SEQ ID NO: 11-NH2]”, the “Result: modulation” value (LAN cells) was “Active in the modulation of”.
With “Ac-Glu-Arg-Ile-Asn-Lys-Arg-Arg-Trp-NH2 (Ac-ERINKRRW-NH2) [Ac-SEQ ID NO: 13-NH2]” the “Result: modulation” value (LAN cells) was “not able to inhibit the release of acetylcholine; also recorded: Non-active in the modulation”.
With “Ac-Glu-Arg-Ile-Asn-Lys-Met-Arg-Tyr-NH2 (Ac-ERINKMRY-NH2) [Ac-SEQ ID NO: 14-NH2]” the “Result: modulation” value (LAN cells) was “not able to inhibit the release of acetylcholine; also recorded: Non-active in the modulation”.
With “Ac-His-Ile-Leu-Asp-Met-Trp-NH2 (Ac-HILDMW-NH2) [Ac-SEQ ID NO: 5-NH2]” the ACTA1 gene expression ([1]; 0.05 mg/mL) was “downregulation”, the MYH1 gene expression ([1]; 0.05 mg/mL) was “downregulation” and the RAPSN gene expression ([1]; 0.05 mg/mL) was “downregulation”. For the same substance, the SCN3A gene expression ([1]; 0.05 mg/mL) was “downregulation”, the TNNC1 gene expression ([1]; 0.05 mg/mL) was “downregulation” and the UTRN gene expression ([1]; 0.05 mg/mL) was “downregulation”. The “Maximum inhibition of Munc18-Syntaxin-1 binding” value (Munc18/Syntaxin-1) was 67% and the “Result: modulation” value (LAN cells) was “Active in the modulation of”.
In the case of “Ac-His-Ile-Leu-Asp-Trp-Trp-NH2 (Ac-HILDWW-NH2) [Ac-SEQ ID NO: 7-NH2]”, the “Result: modulation” value (LAN cells) is reported as “Active in the modulation of”.
With “Ac-His-Ile-Met-Asp-Phe-Trp-NH2 (Ac-HIMDFW-NH2) [Ac-SEQ ID NO: 6-NH2]” the “Result: modulation” value (LAN cells) was “Active in the modulation of”.
With “Ac-His-Ile-Met-Asp-Trp-Trp-NH2 (Ac-HIMDWW-NH2) [Ac-SEQ ID NO: 9-NH2]” the “Result: modulation” value (LAN cells) was “Active in the modulation of”.
In the case of “acetyl hexapeptide-8 [reference compound]”, the “change of exocytosis level” value (SH-SY5Y cells) is reported as 7%, the “exocytosis response time delay” value (SH-SY5Y cells) is reported as 67% and the “muscle contraction frequency with regard to the basal non-treated cells” value ([2]; after 30 min) is reported as 18%. For the same substance, the “muscle contraction frequency with regard to the basal non-treated cells” value ([2]; after 24 h) was 45%, the “muscle contraction frequency with regard to the basal non-treated cells” value ([2]; after washout) was 100% and the “inhibition of exocytosis, maximum values” [3] was 40%.
